Laboratory results published in US4892883A, “Pharmaceutical compositions containing bilobalide for the treatment of neuropathies Ai” (Willman - Schwabe GmbH & Co., priority 1973, dated 1990).

Assays:
Monilia fructicola = settings: cited from earlier work
[1] = test system: cholinergic mechanisms of the central nervous system; test: Stimulating effect on cholinergic mechanisms of the central nervous system; settings: in vivo
Experimental: The stimulating effects of the extract on the cholinergic system of the central nervous system were determined in various experiments. In one of these experiments the influence of the extract on the spontaneous climbing behaviour (SCB) was examined according to the method described by Marcais et al. (Psychopharmacology; 56, 233-234, 1978).

[2] = test system: neuropathy on the triethyltin chloride model; test: Protective action against TET-induced neuropathy, hotplate test (Experiment 4, Table III); type: in vivo, rat (Sprague-Dawley); settings: overall conclusion of Experiments 1 to 5
[3] = test system: existent neuropathies, neurological and mental functions; test: Clinical investigations; type: in vivo
[4] = test system: neuropathy on the triethyltin chloride model; test: Curative action on TET-induced neuropathy, hotplate test (Experiment 5, Table IV); type: in vivo, rat (Sprague-Dawley); settings: for Body weight after intoxication / Food consumption after intoxication / Hotplate reaction time after intoxication / Water consumption after intoxication: after 6 days TET, before treatment
Experimental: In a similar manner, the curative action of bilobalid or extract containing bilobalide is investigated. The animals are offered a 0.002 per cent TET solution in place of drinking water for 6 days. Subsequently (from the 7th day), the TET solution is replaced by tap water and, simultaneously, the daily oral treatment is started. Treatment is continued for 6 days. The measured parameters (body weight, consumption of food and water, hotplate reaction time) are determined on the 6th day before the treatment and on the 14th day after the treatment.

[5] = test system: male Sprague-Dawley rats given triethyltin chloride (brain water and electrolyte contents); test: Protective effect against triethyltin chloride (TET) intoxication (Experiment 1, Table I); type: in vivo, rat (Sprague-Dawley); settings: for Brain % water / Brain K^+ / Brain Na^+ / Brain Na^+ /K^+ / Mean body weight, 14 days / Mean body weight, initial: TET 0.002%
Experimental: Male Sprague-Dawley rats (200-300 g body weight) are offered an aqueous solution containing 0.002 per cent triethyltin chloride (abbreviated to TET) as drinking liquid for 14 days. Control animals received water. The Gingko biloba monoextract (EGB) with or without bilobalide and the various test substances are administered orally 1×daily throughout these 14 days. On day 15, the animals are sacrificed, the brain is removed and its water and electrolyte contents are determined. The body weight of the animals during the experiment is checked daily.

Penicillium glaucum = settings: cited from earlier work
mouse ear = settings: cited from earlier work
[6] = test system: male Sprague-Dawley rats given hexachlorophene (brain water and electrolyte contents); test: Protective effect against hexachlorophene intoxication (Experiment 2, Table II); type: in vivo, rat (Sprague-Dawley); settings: hexachlorophene i.p.
Experimental: In another experiment, male Sprague-Dawley rats (200-250 g body weight) receive intraperitoneal injections of 20 mg/kg hexachlorophene (suspended in 0.2% agar) for 2 days and only 10 mg/kg on the 3rd day. The test substances are administered orally after administration of hexachlorophene.
The control animals receive only 0.2% agar i.p. or tap water orally. On the 4th day, the animals are sacrificed and the water and electrolyte contents in the brain are determined. The body weight of the animals is measured daily throughout the 4 days.

[7] = test system: neuropathy on the triethyltin chloride model; test: Protective action against TET-induced neuropathy, hotplate test (Experiment 4, Table III); type: in vivo, rat (Sprague-Dawley); settings: TET 0.002%
Experimental: The investigations of the protective action against damage to myelin and its expression as neuropathy is likewise carried out on the triethyltin chloride model. When the animals are treated not for 14 days but for only 6 days with a 0.002 per cent TET solution administered in place of the drinking water, they show various signs of neuropathy although no cerebral oedema is detectable in this period. The neuropathy is quantified by measuring the consumption of food and water and by the changes in body weight. In addition, as a specific parameter, the pain reaction time in a hotplate test (at 50° C.) is measured (J. Pharm. Pharmacol., 9 (1957), 381).

Escherichia coli = settings: cited from earlier work
[8] = 5 mg/kg p.o. daily 6 days after TET
[9] = 10 mg/kg p.o. daily 6 days after TET

## CC(C)(C)C1(O)CC2OC(=O)CC23C(=O)OC2OC(=O)C(O)C231 (centres unmarked) [Bilobalide, bilobalide]
Monilia fructicola
  fungicidal action: no fungicidal action
[1]
  stimulating effect on cholinergic mechanisms of the central nervous system: stimulating effect on the cholinergic mechanisms of the central nervous system
[2]
  prevention of neurotoxic signs and of cerebral oedema: prevents the occurrence of neurotoxic signs and of cerebral oedema
[3]
  effects on existent neuropathies, neurological and mental functions: favourable effects on existent neuropathies, neurological and mental functions
[4]; [8]
  Body weight after treatment: 242 g
  Food consumption after treatment: 17.4 g/animal/day
  Hotplate reaction time after treatment: 61.58 s
  Water consumption after treatment: 31.4 ml/animal/day
[4]; 5 mg/kg p.o. group
  Body weight after intoxication: 236 g
  Food consumption after intoxication: 10.4 g/animal/day
  Hotplate reaction time after intoxication: 88.1 ± 5.67 s
  Water consumption after intoxication: 11.4 ml/animal/day
[4]; [9]
  Body weight after treatment: 232 g
  Food consumption after treatment: 18.6 g/animal/day
  Hotplate reaction time after treatment: 48.58 ± 18.44 s
  Water consumption after treatment: 23.1 ml/animal/day
[4]; 10 mg/kg p.o. group
  Body weight after intoxication: 227 g
  Food consumption after intoxication: 8.9 g/animal/day
  Hotplate reaction time after intoxication: 87.36 ± 7.46 s
  Water consumption after intoxication: 12.7 ml/animal/day
[4]; overall conclusion
  regression of pre-existent damage: pre-existent damage can be made to regress more quickly
[5]; 5 mg/kg p.o. 1×daily 14 days
  Brain % water: 78.57 ± 0.19%
  Brain K^+: 418.9 ± 14.4 mmol/kg dry weight
  Brain Na^+: 162.6 ± 5.4 mmol/kg dry weight
  Brain Na^+ /K^+: 0.39 ± 0.020
  Mean body weight, 14 days: 323 g
[5]; 5 mg/kg p.o. 1×daily
  Mean body weight, initial: 288 g
[5]; 10 mg/kg p.o. 1×daily 14 days
  Brain % water: 78.16 ± 0.09%
  Brain K^+: 452.7 ± 12.9 mmol/kg dry weight
  Brain Na^+: 198.3 ± 2.74 mmol/kg dry weight
  Brain Na^+ /K^+: 0.44 ± 0.04
  Mean body weight, 14 days: 318 g
[5]; 10 mg/kg p.o. 1×daily
  Mean body weight, initial: 272 g
[5]; 20 mg/kg p.o. 1×daily 14 days
  Brain % water: 77.75 ± 0.11%
  Brain K^+: 400.6 mmol/kg dry weight
  Brain Na^+: 187.9 ± 10.4 mmol/kg dry weight
  Brain Na^+ /K^+: 0.45 ± 0.05
  Mean body weight, 14 days: 325 g
[5]; 20 mg/kg p.o. 1×daily
  Mean body weight, initial: 288 g
[5]; oral, TET 14 days
  protective effect against decrease in body weight and increase in brain water and Na^+: good protective effect
Penicillium glaucum
  fungicidal action: no fungicidal action
Mouse ear
  inflammatory action: no inflammatory action
[6]; 5 mg/kg p.o.
  Mean body weight, 4th day: 270 g
[6]; 5 mg/kg p.o., 4th day
  Brain % water: 77.93 ± 0.17%
  Brain K^+: 414.5 ± 4.4 mmol/kg dry weight
  Brain Na^+: 187.9 ± 4.0 mmol/kg dry weight
  Brain Na^+ /K^+: 0.45 ± 0.01
[6]; 5 mg/kg p.o., initial
  Mean body weight, initial: 264 g
[6]; oral
  protection from cerebral oedema and reduction in body weight: protects the animals from the development of cerebral oedema and prevents the reduction in body weight
[7]; 10 mg/kg/day p.o. 6 days
  Food consumption, final: 22.1 g/animal/day
  Mean body weight, final: 261 g
  Water consumption, final: 21.9 ml/animal/day
[7]; 10 mg/kg/day p.o. 6 days, 50° C.
  Hotplate reaction time, final: 17.9 s
[7]; 10 mg/kg/day p.o., 50° C., initial
  Hotplate reaction time, initial: 28.9 s
[7]; 10 mg/kg/day p.o., initial
  Food consumption, initial: 24.3 g/animal/day
  Mean body weight, initial: 241 g
  Water consumption, initial: 35.1 ml/animal/day
[7]; oral, 6 days
  protective action against neuropathic signs: good protective action against the neuropathic signs
Escherichia coli
  bactericidal action: nor any bactericidal action
